According to article PMC10452266, “Divergent Pharmacology and Biased Signaling of the Four Melanocortin-4 Receptor Isoforms in Rainbow Trout (Oncorhynchus mykiss)” (Biomolecules, 2023):
Like-named read-outs stand apart in the source and are kept apart here.

Tests used:
hMC4R [1] = target: T1, hMC4R (Homo sapiens, UniProt P32245); experiment: Ligand-binding assay (displacement of 125I-NDP-MSH), hMC4R
T1 construct: expressed in transfected cells; host or cells: HEK293T
Description: (§1) Cells were plated into 24-well or 6-well plates pre-coated with 0.1% gelatin and transfected with plasmids by the calcium phosphate precipitation method.
A binding assay was conducted as described previously.
Binding assays were used to investigate the binding properties of omMc4rs. […] Data are expressed as % of hMC4R binding ± range from duplicate measurements within one experiment. The curves are representative of at least three independent experiments.

hMC4R [2] = target: T1, hMC4R; conditions: ref [51]; cited from earlier work
omMc4ra2 [3] = experiment: ERK1/2 phosphorylation assay, omMc4ra2; assay type: cell-based, rainbow trout (Oncorhynchus mykiss); conditions: 1 μM α-MSH, 10 nM AgRP, 1 μM MCL0020, 1 μM Ipsen 5i or 1 μM ML00253764, 5 min, HEK293T, Western blot, at least three independent experiments
Description: (§2) Human Embryonic Kidney (HEK) 293T cells, provided by American Type Culture Collection (Manassas, VA, USA), were cultured as described previously. Cells were plated into 24-well or 6-well plates pre-coated with 0.1% gelatin and transfected with plasmids by the calcium phosphate precipitation method.
(§3) HEK293T cells were transfected with omMC4Rs. Twenty-four hours after transfection, cells were washed twice and starved in media without serum for 24 h. […] Rabbit anti-pERK1/2 antibody (Catalog #4370, Cell Signaling, Beverly, MA, USA) and mouse anti-β-tubulin antibody (Developmental Studies Hybridoma Bank, University of Iowa, Iowa City, IA, USA) were used in this study. The bound antibodies were quantified using ImageJ 1.44 software (National Institute of Health, Bethesda, MD, USA).
(§4) Figure 9 ERK1/2 signaling properties of trout Mc4rs. (A) Immunoblots of pERK1/2 in cells expressing omMc4ra1, omMc4ra2, omMc4rb1, or omMc4rb2. HEK293T cells were transiently transfected with omMc4ra1, omMc4ra2, omMc4rb1, omMc4rb2, or empty vector plasmids and were starved overnight 24 h after transfection. […] Western blots were performed as described in Materials and Methods. (B) Densitometry results of basal pERK1/2 levels of omMc4ra1, omMc4ra2, omMc4rb1, and omMc4rb2. (C) Densitometry results of pERK1/2 level of omMc4ra1. (D) Densitometry results of pERK1/2 level of omMc4ra2. […]

saMc4r [4] = conditions: saMc4r (spotted scat); ref [48],[51],[81]; cited from earlier work
From the text: (§5) MC4R-mediated ERK1/2 signaling has a crucial role in the modulation of energy homeostasis. Although teleost Mc4rs have much higher basal activities in Gs-cAMP signaling, constitutive activation of ERK1/2 signaling is only observed in topmouth culter Mc4r but not in saMc4r and ciMc4r. […] Our data documented that these three compounds only activated ERK1/2 signaling of omMc4rb1 but not the other three omMc4rs (Figure 9).

hMC4R [5] = target: T1, hMC4R; conditions: ref [48],[51],[81]; cited from earlier work
From the text: as §5

ciMc4r [6] = conditions: ciMc4r (grass carp); ref [48],[51],[81]; cited from earlier work
From the text: as §5

saMc4r [7] = conditions: ref [51]; cited from earlier work
omMc4ra1 [8] = experiment: ERK1/2 phosphorylation assay, omMc4ra1; assay type: cell-based, rainbow trout (Oncorhynchus mykiss); conditions: 1 μM α-MSH, 10 nM AgRP, 1 μM MCL0020, 1 μM Ipsen 5i or 1 μM ML00253764, 5 min, HEK293T, Western blot, at least three independent experiments
Description: as §2, §3, §4

hMC4R [9] = target: T1, hMC4R; conditions: cited from earlier work
omMc4ra1 [10] = experiment: Effect of antagonists on basal cAMP level, omMc4ra1; assay type: cell-based, rainbow trout (Oncorhynchus mykiss); conditions: 10 nM AgRP, 1 μM MCL0020, 1 μM ML00253764 or 1 μM Ipsen 5i, 1 h, HEK293T, RIA, three independent experiments
Description: as §1
(§6) Intracellular cAMP levels were determined according to previous protocol.

omMc4rb2 [11] = experiment: Effect of antagonists on basal cAMP level, omMc4rb2; assay type: cell-based, rainbow trout (Oncorhynchus mykiss); conditions: 10 nM AgRP, 1 μM MCL0020, 1 μM ML00253764 or 1 μM Ipsen 5i, 1 h, HEK293T, RIA, three independent experiments
Description: as §1, §6

saMc4r [12] = conditions: ref [51]; cited from earlier work; remark: listed apart in the source
From the text: (§7) Numerous constitutively active mutants have been reported in several GPCRs, resulting in various human diseases, and inverse agonism will be vital for correcting the diseases caused by activating mutations in GPCRs. The constitutive activity of teleost Mc4r may have important physiological functions.

ciMc4r [13] = conditions: ref [51]; cited from earlier work
From the text: as §7

ciMc4r [14] = conditions: ref [51]; cited from earlier work; remark: listed apart in the source
omMc4rb1 [15] = experiment: Effect of antagonists on basal cAMP level, omMc4rb1; assay type: cell-based, rainbow trout (Oncorhynchus mykiss); conditions: 10 nM AgRP, 1 μM MCL0020, 1 μM ML00253764 or 1 μM Ipsen 5i, 1 h, HEK293T, RIA, three independent experiments
Description: as §1, §6

omMc4rb1 [16] = experiment: Ligand-binding assay (displacement of 125I-NDP-MSH), omMc4rb1; set-up: species or system rainbow trout (Oncorhynchus mykiss); conditions: displacement of 125I-NDP-MSH, transiently transfected HEK293T cells, 48 h after transfection, mean ± SEM of at least three independent experiments
Description: as §2
(§8) A binding assay was conducted as described previously. […].
(§9) Binding assays were used to investigate the binding properties of omMc4rs. […].  Figure 6 Ligand-binding properties of omMc4rs. […]. Data are expressed as % of hMC4R binding ± range from duplicate measurements within one experiment. The curves are representative of at least three independent experiments.

omMc4rb1 [17] = experiment: ERK1/2 phosphorylation assay, omMc4rb1; assay type: cell-based, rainbow trout (Oncorhynchus mykiss)
Description: as §2, §3
Figure 9 ERK1/2 signaling properties of trout Mc4rs. (A) Immunoblots of pERK1/2 in cells expressing omMc4ra1, omMc4ra2, omMc4rb1, or omMc4rb2. HEK293T cells were transiently transfected with omMc4ra1, omMc4ra2, omMc4rb1, omMc4rb2, or empty vector plasmids and were starved overnight 24 h after transfection. […] Western blots were performed as described in Materials and Methods. (B) Densitometry results of basal pERK1/2 levels of omMc4ra1, omMc4ra2, omMc4rb1, and omMc4rb2. (C) Densitometry results of pERK1/2 level of omMc4ra1. (D) Densitometry results of pERK1/2 level of omMc4ra2. (E) Densitometry results of pERK1/2 level of omMc4rb1. (F) Densitometry results of pERK1/2 level of omMc4rb2.

omMc4rb2 [18] = experiment: Ligand-binding assay (displacement of 125I-NDP-MSH), omMc4rb2; set-up: species or system rainbow trout (Oncorhynchus mykiss); conditions: AgRP 10^-12 to 10^-7 M, MCL0020 and Ipsen 5i 10^-11 to 10^-6 M, ML00253764 10^-10 to 10^-5 M, transfected HEK293T cells
Description: as §2, §8, §9

omMc4rb2 [19] = experiment: ERK1/2 phosphorylation assay, omMc4rb2; assay type: cell-based, rainbow trout (Oncorhynchus mykiss); conditions: 1 μM α-MSH, 10 nM AgRP, 1 μM MCL0020, 1 μM Ipsen 5i or 1 μM ML00253764, 5 min, HEK293T, Western blot, at least three independent experiments
Description: as §2, §3, §4

omMc4ra1 [20] = experiment: Ligand-binding assay (displacement of 125I-NDP-MSH), omMc4ra1; set-up: species or system rainbow trout (Oncorhynchus mykiss); conditions: AgRP 10^-12 to 10^-7 M, MCL0020 and Ipsen 5i 10^-11 to 10^-6 M, ML00253764 10^-10 to 10^-5 M, transfected HEK293T cells
Description: as §2, §8, §9

omMc4ra2 [21] = experiment: Effect of antagonists on basal cAMP level, omMc4ra2; assay type: cell-based, rainbow trout (Oncorhynchus mykiss); conditions: 10 nM AgRP, 1 μM MCL0020, 1 μM ML00253764 or 1 μM Ipsen 5i, 1 h, HEK293T, RIA, three independent experiments
Description: as §1, §6

omMc4ra2 [22] = experiment: Ligand-binding assay (displacement of 125I-NDP-MSH), omMc4ra2; set-up: species or system rainbow trout (Oncorhynchus mykiss); conditions: AgRP 10^-12 to 10^-7 M, MCL0020 and Ipsen 5i 10^-11 to 10^-6 M, ML00253764 10^-10 to 10^-5 M, transfected HEK293T cells
Description: as §2, §8, §9

T1 sequence (P32245 whole entry): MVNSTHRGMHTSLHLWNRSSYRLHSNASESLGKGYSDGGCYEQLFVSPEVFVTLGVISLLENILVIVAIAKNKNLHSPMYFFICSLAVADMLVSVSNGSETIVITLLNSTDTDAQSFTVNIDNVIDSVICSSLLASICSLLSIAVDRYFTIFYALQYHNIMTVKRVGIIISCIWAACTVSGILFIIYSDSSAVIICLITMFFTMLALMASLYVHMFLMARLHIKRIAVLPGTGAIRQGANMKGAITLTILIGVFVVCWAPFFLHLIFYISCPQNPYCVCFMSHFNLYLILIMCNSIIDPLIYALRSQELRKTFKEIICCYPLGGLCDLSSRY

`CSCC[C@@H]1NC(=O)[C@H](C)NC(=O)[C@H]([C@@H](C)O)NC(=O)CNC(=O)[C@H](CC(C)C)NC(=O)[C@H](CCCCN)NC(=O)[C@H](CCCNC(=N)N)NC(=O)[C@@H]2CSSC[C@@H]3NC(=O)[C@@H]4CCCN4C(=O)[C@H](C(C)C)NC(=O)[C@H](CCC(N)=O)NC(=O)[C@H](CCC(N)=O)NC(=O)CNC(=O)[C@H](CC(C)C)NC(=O)[C@@H]4CSSC[C@H](NC(=O)[C@H]([C@@H](C)O)NC(=O)[C@H](C)NC(=O)[C@H](CSSC[C@@H](C(=O)N[C@@H](CO)C(=O)N[C@@H](CCCNC(=N)N)C(=O)N[C@H](C(=O)O)[C@@H](C)O)NC(=O)[C@@H]5CCCN5C(=O)[C@H](CC(N)=O)NC1=O)NC(=O)[C@@H]1CCCN1C(=O)[C@H](CC(=O)O)NC(=O)[C@H](CSSC[C@H](NC(=O)[C@H](CCCNC(=N)N)NC(=O)[C@H](CCCNC(=N)N)NC(=O)[C@H](CO)NC(=O)[C@@H](N)CO)C(=O)N[C@@H](C(C)C)C(=O)N[C@@H](CCCNC(=N)N)C(=O)N[C@@H](CC(C)C)C(=O)N[C@@H](Cc1c[nH]cn1)C(=O)N[C@@H](CCC(=O)O)C(=O)N[C@@H](CO)C(=O)N4)NC3=O)C(=O)N[C@@H](Cc1ccc(O)cc1)C(=O)N[C@H]1CSSC[C@H](NC(=O)[C@H](Cc3ccccc3)NC(=O)[C@H](C)NC(=O)[C@H](CC(N)=O)NC(=O)[C@H](Cc3ccccc3)NC(=O)[C@H](Cc3ccccc3)NC(=O)[C@H](CCCNC(=N)N)NC1=O)C(=O)N[C@@H](Cc1ccc(O)cc1)C(=O)N2` [AgRP] showed an IC50 (hMC4R [1]) of 32.5 ± 7.76 nM.
For `CC(=O)N[C@H](Cc1ccc2ccccc2c1)C(=O)N[C@@H](CCCNC(=N)N)C(=O)N[C@@H](Cc1ccc2ccccc2c1)C(N)=O` [MCL0020, Ac-D-2-Nal-Arg-2-Nal-NH2], the “NDP-MSH displacement” value (hMC4R [2]) is listed as “replaces NDP-MSH binding”, the “effect on ERK1/2 phosphorylation” value (omMc4ra2 [3]) is listed as “no effect” and the “biased signaling, Gs-cAMP versus ERK1/2” value (saMc4r [4]) is listed as “preferred activation on ERK1/2 signaling”. The “biased signaling, Gs-cAMP versus ERK1/2” value (hMC4R [5]) was “preferred activation on ERK1/2 signaling”, the “biased signaling, Gs-cAMP versus ERK1/2” value (ciMc4r [6]) was “preferred activation on ERK1/2 signaling” and the “NDP-MSH displacement” value (saMc4r [7]) was “replaces NDP-MSH binding”. The “effect on ERK1/2 phosphorylation” value (omMc4ra1 [8]) was “not by ML00253764, Ipsen 5i, or MCL0020”, the IC50 (hMC4R [1]; hMC4R, displacement of 125I-NDP-MSH, transiently transfected HEK293T cells, 48 h after transfection, mean ± SEM of at least three independent experiments, read-out: IC50) was 62.3 ± 4.82 nM and the “basal activity of hMC4R and constitutively active mutant hMC4Rs” value (hMC4R [9]; hMC4R and mutants, ref [1],[28],[48],[51]) was “reduced by inverse agonists”. For the same compound, the “type of ligand at hMC4R” value (hMC4R [9]; hMC4R, ref [51],[56],[79]) was “neutral antagonist of hMC4R”, the “effect on basal cAMP level” value (omMc4ra1 [10]) was “no significant effect” and the “effect on basal cAMP level” value (omMc4rb2 [11]) was “no significant effect”. The “basal and ligand-induced cAMP levels” value (saMc4r [12]) was “no effect on basal and ligand-induced cAMP levels”, the “NDP-MSH-induced cAMP generation” value (ciMc4r [13]) was “antagonizes NDP-MSH-induced cAMP generation” and the “basal cAMP production” value (ciMc4r [13]) was “decreases the basal cAMP production of ciMc4r”. For the same compound, the “NDP-MSH displacement” value (ciMc4r [14]) was “replaces NDP-MSH binding”, the “effect on basal cAMP level” value (omMc4rb1 [15]) was “no significant effect” and the IC50 (omMc4rb1 [16]) was 305 ± 66.2 nM. The “effect on ERK1/2 phosphorylation” value (omMc4rb1 [17]; 1 μM α-MSH, 10 nM AgRP, 1 μM MCL0020, 1 μM Ipsen 5i or 1 μM ML00253764, 5 min, HEK293T, Western blot, at least three independent experiments) was “significantly increased”, the “biased signaling, cAMP versus ERK1/2” value (omMc4rb1 [17]; concluded from binding, cAMP and pERK1/2 results) was “biased allosteric modulators for omMc4rb1 with selective activation on ERK1/2 signaling” and the “displacement of 125I-NDP-MSH binding” value (omMc4rb2 [18]) was “only displaced ^125I-NDP-MSH binding to hMC4R and omMc4rb1”. For the same compound, the “effect on ERK1/2 phosphorylation” value (omMc4rb2 [19]) was “no effect”, the “displacement of 125I-NDP-MSH binding” value (omMc4ra1 [20]) was “only displaced ^125I-NDP-MSH binding to hMC4R and omMc4rb1” and the “effect on basal cAMP level” value (omMc4ra2 [21]) was “no significant effect”. The “displacement of 125I-NDP-MSH binding” value (omMc4ra2 [22]) was “only displaced ^125I-NDP-MSH binding to hMC4R and omMc4rb1”.
